Data from ChEMBL document CHEMBL1156193, “Discovery of a long-acting, peripherally selective inhibitor of catechol-O-methyltransferase” (2010).
Active and inactive are the calls of the source. The rule behind the calls is not given here.

Columns and labels:
Rattus norvegicus [1] = assay: Inhibition of COMT in Wistar rat liver homogenates assessed as metanephrine formation at 3 mg/kg, po measured after 3 hrs; assay type: functional, organism-based; set-up: dose 3 mg/kg
Rattus norvegicus [2] = assay: Inhibition of COMT in Wistar rat brain homogenates assessed as metanephrine formation at 3 mg/kg, po measured after 3 hrs; assay type: functional, organism-based; set-up: dose 3 mg/kg
Rattus norvegicus [3] = assay: Inhibition of COMT in Wistar rat plasma assessed as increase L-DOPA level at 3 mg/kg, po co-administered with L-dopa and benserazide measured after 7 hrs by HPLC analysis; assay type: functional
Rattus norvegicus [4] = assay: Inhibition of COMT in Wistar rat brain homogenates assessed as metanephrine formation at 3 mg/kg, po measured after 1 hr; assay type: functional, organism-based; set-up: dose 3 mg/kg
Rattus norvegicus [5] = assay: Inhibition of COMT in Wistar rat liver homogenates assessed as metanephrine formation at 3 mg/kg, po measured after 1 hr; assay type: functional, organism-based; set-up: dose 3 mg/kg
Rattus norvegicus [6] = assay: Inhibition of COMT in Wistar rat plasma assessed as decrease in 3-O-methyl-L-Dopa level at 3 mg/kg, po co-administered with L-dopa and benserazide measured after 7 hrs by HPLC analysis; assay type: functional, organism-based; set-up: dose 3 mg/kg
[7] = Cytotoxicity against mouse Neuro2a cells assessed as cell viability at 30 uM after 24 hrs; assay type: functional; conditions: N2a, read-out: Activity
Mus musculus [8] = assay: Inhibition of COMT in NMRI mouse liver homogenates assessed as metanephrine formation at 3 mg/kg, po measured after 3 hrs relative to control; values are per cent of control
Rattus norvegicus [9] = assay: Inhibition of central COMT in Wistar rat brain homogenates assessed as metanephrine formation at 3 mg/kg, po measured after 9 hrs; assay type: functional
Rattus norvegicus [10] = assay: Inhibition of COMT in Wistar rat plasma assessed as increase L-DOPA level at 3 mg/kg, po co-administered with L-dopa and benserazide measured after 2 hrs by HPLC analysis; assay type: functional
Rattus norvegicus [11] = assay: Inhibition of peripheral COMT in Wistar rat liver homogenates assessed as metanephrine formation at 3 mg/kg, po measured after 9 hrs
Rattus norvegicus [12] = assay: Inhibition of COMT in Wistar rat plasma assessed as decrease in 3-O-methyl-L-Dopa level at 3 mg/kg, po co-administered with L-dopa and benserazide measured after 2 hrs by HPLC analysis; assay type: functional, organism-based; set-up: dose 3 mg/kg
Mus musculus [13] = assay: Inhibition of COMT in NMRI mouse liver homogenates assessed as metanephrine formation at 30 mg/kg, po measured after 6 hrs relative to control; values are per cent of control
Rattus norvegicus [14] = assay: Inhibition of COMT in Wistar rat liver homogenates assessed as metanephrine formation at 3 mg/kg, po measured after 3 hrs relative to control; values are per cent of control
Rattus norvegicus [15] = organism: Rattus norvegicus; conditions: Wistar, Liver, 3 mg/kg
Rattus norvegicus [16] = assay: Inhibition of COMT in po dosed Wistar rat liver homogenates assessed as metanephrine formation measured up to 3 hrs relative to control; assay type: functional
Rattus norvegicus [17] = assay: Inhibition of COMT in Wistar rat plasma assessed as increase L-DOPA level at 3 mg/kg, po co-administered with L-dopa and benserazide measured after 24 hrs by HPLC analysis; assay type: functional, organism-based; set-up: dose 3 mg/kg
Rattus norvegicus [18] = assay: Inhibition of central COMT in Wistar rat liver homogenates assessed as metanephrine formation at 3 mg/kg, po measured after 9 hrs; assay type: functional; conditions: Brain, in the assay text read “rat brain homogenates” for “rat liver homogenates”
Rattus norvegicus [19] = assay: Inhibition of central COMT in Wistar rat brain homogenates assessed as metanephrine formation at 3 mg/kg, po measured up to 24 hrs; assay type: functional, organism-based; set-up: dose 3 mg/kg
Rattus norvegicus [20] = assay: Inhibition of peripheral COMT in Wistar rat brain homogenates assessed as metanephrine formation at 3 mg/kg, po measured after 24 hrs; assay type: functional; conditions: Liver, in the assay text read “rat liver homogenates” for “rat brain homogenates”
Rattus norvegicus [21] = assay: Inhibition of central COMT in Wistar rat brain homogenates assessed as metanephrine formation at 3 mg/kg, po measured up to 24 hrs
Rattus norvegicus [22] = assay: Inhibition of peripheral COMT in Wistar rat liver homogenates assessed as metanephrine formation at 3 mg/kg, po measured after 24 hrs; assay type: functional
Rattus norvegicus [23] = assay: Inhibition of COMT in Wistar rat plasma assessed as decrease in 3-O-methyl-L-Dopa level at 3 mg/kg, po co-administered with L-dopa and benserazide measured after 24 hrs by HPLC analysis; assay type: functional, organism-based; set-up: dose 3 mg/kg
Rattus norvegicus [24] = assay: Inhibition of COMT in Wistar rat plasma assessed as decrease in 3-O-methyl-L-Dopa level at 3 mg/kg, po co-administered with L-dopa and benserazide measured after 2 hrs by HPLC analysis relative to control; assay type: functional

Cc1ccc(C(=O)c2cc(O)c(O)c([N+](=O)[O-])c2)cc1 [TOLCAPONE]
inhibition (Rattus norvegicus [1]): Active
inhibition (Rattus norvegicus [2]): Active
fold change (FC) (Rattus norvegicus [3]): 2
inhibition (Rattus norvegicus [4]): Active
Activity (Rattus norvegicus [5]): Active
inhibition (Rattus norvegicus [6]): Active
viability at 30 µM [7]: 27.2%
level, % of control at 3 mg/kg (Mus musculus [8]): 15.1%
inhibition in vivo at 3 mg/kg (Rattus norvegicus [9]): 50%
fold change (FC) (Rattus norvegicus [10]): 3
inhibition (Rattus norvegicus [11]): inactive
inhibition (Rattus norvegicus [12]): Active
level, % of control at 30 mg/kg (Mus musculus [13]): 6.8%
level, % of control at 3 mg/kg (Rattus norvegicus [14]): 23.8%
inhibition (Rattus norvegicus [15]): inactive
ED50 (Rattus norvegicus [16]): 1.77 mg/kg
inhibition (Rattus norvegicus [17]): inactive
inhibition in vivo at 3 mg/kg (Rattus norvegicus [18]): 50%

Cc1c(Cl)c(C)[n+]([O-])c(Cl)c1-c1noc(-c2cc(O)c(O)c([N+](=O)[O-])c2)n1 [OPICAPONE]
inhibition (Rattus norvegicus [1]): Active
inhibition (Rattus norvegicus [19]): inactive
inhibition in vivo at 3 mg/kg (Rattus norvegicus [20]): 50%
inhibition (Rattus norvegicus [21]): inactive
inhibition (Rattus norvegicus [5]): Active
viability at 30 µM [7]: 86.6%
fold change (FC) (Rattus norvegicus [10]): 2
inhibition in vivo at 3 mg/kg (Rattus norvegicus [22]): 50%
inhibition (Rattus norvegicus [23]): Active
inhibition in vivo at 3 mg/kg (Rattus norvegicus [24]): 50%
level, % of control at 3 mg/kg (Rattus norvegicus [14]): 0.7%
ED50 (Rattus norvegicus [16]): 1.05 mg/kg
